Where “and” joins values, the source holds several entries; their conditions need not be identical. Identical values can stand only once.
Assay: xn = mol fraction of the nth substance listed
Conditions: Liquid; for mass density: Bellows volumetry; for viscosity: Falling or rolling sphere viscometry

C=CC [propene] + Cc1ccccc1
Conditions | mass density, x1 = 0.0787 | mass density, x1 = 0.3073 | viscosity, x1 = 0.0787 | viscosity, x1 = 0.3073
376.9 K, 3100 kPa | 760.8 kg/m3 | – | 0.253 mPa·s | –
376.9 K, 3200 kPa | 760.8 kg/m3 | – | 0.252 mPa·s | –
376.9 K, 3900 kPa | 762.5 kg/m3 | – | 0.26 mPa·s | –
376.9 K, 8400 kPa | 767 kg/m3 | – | 0.264 mPa·s | –
376.9 K, 8500 kPa | 767 kg/m3 | – | 0.267 mPa·s | –
376.9 K, 8600 kPa | 767 kg/m3 | – | 0.267 mPa·s | –
376.9 K, 8700 kPa | 767.3 kg/m3 | – | 0.269 mPa·s | –
376.9 K, 14300 kPa | 774.1 kg/m3 | – | 0.282 mPa·s | –
376.9 K, 14600 kPa | 774.1 kg/m3 | – | 0.283 mPa·s | –
376.9 K, 26800 kPa | 786.3 kg/m3 | – | 0.314 mPa·s | –
376.9 K, 27000 kPa | 786.3 kg/m3 | – | 0.312 mPa·s | –
376.9 K, 27200 kPa | 786.6 kg/m3 | – | 0.312 mPa·s | –
376.9 K, 27400 kPa | 786.6 kg/m3 | – | 0.317 mPa·s and 0.312 mPa·s | –
376.9 K, 27600 kPa | 786.6 kg/m3 | – | 0.317 mPa·s | –
376.9 K, 41000 kPa | 799.3 kg/m3 and 798.4 kg/m3 | – | 0.352 mPa·s and 0.349 mPa·s | –
376.9 K, 41200 kPa | 798.4 kg/m3 and 799.3 kg/m3 | – | 0.345 mPa·s and 0.353 mPa·s | –
376.9 K, 55500 kPa | 810.5 kg/m3 | – | 0.376 mPa·s | –
376.9 K, 55800 kPa | 810.5 kg/m3 | – | 0.386 mPa·s | –
376.9 K, 68600 kPa | 819.9 kg/m3 | – | 0.419 mPa·s | –
376.9 K, 68900 kPa | 819.9 kg/m3 | – | 0.418 mPa·s | –
440.5 K, 3600 kPa | – | 599.7 kg/m3 | – | 0.12 mPa·s and 0.121 mPa·s
440.5 K, 7500 kPa | – | 612.2 kg/m3 | – | 0.129 mPa·s
440.5 K, 7600 kPa | – | 612.2 kg/m3 | – | 0.129 mPa·s
440.5 K, 20300 kPa | – | 642.2 kg/m3 | – | 0.15 mPa·s
440.5 K, 37200 kPa | – | 669.5 kg/m3 | – | 0.176 mPa·s and 0.177 mPa·s
440.5 K, 37400 kPa | – | 669.5 kg/m3 | – | 0.174 mPa·s
440.5 K, 37500 kPa | – | 669.5 kg/m3 | – | 0.178 mPa·s
440.5 K, 50100 kPa | – | 683.9 kg/m3 | – | 0.195 mPa·s
440.5 K, 50200 kPa | – | 683.8 kg/m3 | – | 0.193 mPa·s
440.5 K, 68600 kPa | – | 703.5 kg/m3 | – | 0.221 mPa·s
440.5 K, 68700 kPa | – | 703.5 kg/m3 | – | 0.222 mPa·s
443 K, 3200 kPa | 691.9 kg/m3 | – | 0.152 mPa·s | –
443 K, 3300 kPa | 691.6 kg/m3 | – | 0.151 mPa·s | –
443 K, 10500 kPa | 706.3 kg/m3 | – | 0.17 mPa·s and 0.166 mPa·s | –
443 K, 15100 kPa | 714.5 kg/m3 | – | 0.178 mPa·s | –
443 K, 15300 kPa | 714.5 kg/m3 | – | 0.178 mPa·s | –
443 K, 27100 kPa | 732.1 kg/m3 | – | 0.201 mPa·s | –
443 K, 27200 kPa | 732.1 kg/m3 | – | 0.2 mPa·s and 0.201 mPa·s | –
443 K, 27300 kPa | 731.8 kg/m3 | – | 0.201 mPa·s | –
443 K, 37600 kPa | 745.3 kg/m3 | – | 0.221 mPa·s | –
443 K, 37800 kPa | 745.3 kg/m3 | – | 0.218 mPa·s | –
443 K, 47900 kPa | 756.2 kg/m3 | – | 0.243 mPa·s and 0.244 mPa·s | –
443 K, 64800 kPa | 772.1 kg/m3 | – | 0.271 mPa·s | –
443 K, 65000 kPa | 772.4 kg/m3 | – | 0.271 mPa·s | –
529.2 K, 35300 kPa | – | 593.8 kg/m3 | – | 0.119 mPa·s and 0.12 mPa·s
529.2 K, 49000 kPa | – | 619 kg/m3 and 619.1 kg/m3 | – | 0.132 mPa·s and 0.135 mPa·s
529.2 K, 68500 kPa | – | 647.6 kg/m3 | – | 0.156 mPa·s
529.2 K, 68600 kPa | – | 647.5 kg/m3 | – | 0.153 mPa·s
531.1 K, 7200 kPa | 599.1 kg/m3 | – | 0.091 mPa·s | –
531.1 K, 19200 kPa | 641.3 kg/m3 | – | 0.114 mPa·s | –
531.1 K, 19400 kPa | 641.1 kg/m3 | – | 0.113 mPa·s | –
531.1 K, 31900 kPa | 669.1 kg/m3 and 669.7 kg/m3 and 669.3 kg/m3 | – | 0.133 mPa·s and 0.134 mPa·s | –
531.1 K, 32000 kPa | 670.2 kg/m3 | – | 0.133 mPa·s | –
531.1 K, 32100 kPa | 670 kg/m3 | – | 0.131 mPa·s | –
531.1 K, 32200 kPa | 670.2 kg/m3 | – | 0.136 mPa·s | –
531.1 K, 41400 kPa | 685 kg/m3 | – | 0.148 mPa·s | –
531.1 K, 41500 kPa | 685 kg/m3 and 685.2 kg/m3 | – | 0.145 mPa·s and 0.148 mPa·s | –
531.1 K, 41600 kPa | 685.2 kg/m3 | – | 0.146 mPa·s | –
531.1 K, 53300 kPa | 702.3 kg/m3 and 701.5 kg/m3 | – | 0.165 mPa·s | –
531.1 K, 53400 kPa | 701.7 kg/m3 and 702.5 kg/m3 | – | 0.164 mPa·s and 0.165 mPa·s | –
531.1 K, 67100 kPa | 718.1 kg/m3 | – | 0.18 mPa·s | –
531.1 K, 67200 kPa | 718.6 kg/m3 | – | 0.179 mPa·s | –

Source: the NIST ThermoML archive (doi:10.1016/j.fluid.2019.06.022)
